Drawing on ChEMBL document CHEMBL3507680, “University of Dundee, Gates Library screen for HepG2 cell viability”, this text covers cytotoxicity for 99 compounds.

Each structure is given as a SMILES string.

The nature of this data set: Human HepG2 cell viability assay in 384 well format. Format: toxicity, cell-based. Also noted: dose 125 nL, time 70.5 hour; cytotoxicity at 70.5 h: concentration not given beside the values. Particulars: HepG2 cells, read-out: Inhibition.
As for `O=C(CN1CCOc2ccc(Cl)cc21)NCCCn1cccn1`, the cytotoxicity at 70.5 h worked out at 9.56%. As for `Cc1ccc(CN2CCC3(CC2)NC(=O)CC3c2ccncc2)cc1C` (centres undefined), the figure is -3.31%.

For `CSCC[C@@H]1CN2CCC[C@H]2CN1Cc1coc2ccc(C)cc2c1=O`, the cytotoxicity at 70.5 h is -1.62%. Next, `Cn1ccnc1CN1CCOC(Cn2cccn2)C1` (centres undefined): -1.69%. Consider `CC1=NN(c2ccc(C(=O)N3CCCC(n4ccnc4)C3)cc2)CC1` (centres undefined), for which the cytotoxicity at 70.5 h was -17.1%. Next, `CC(C)=CCCC(C)(O)c1cc(C(N)=O)no1` (centres undefined): -9.16%; `CCn1ccc(NS(=O)(=O)c2cccc(COC)c2)n1`: 8.56%. Next, `CS(=O)(=O)N1CC[C@H]2[C@H](C[C@@H](Cn3cncn3)N2CC2CC2)C1`: -1.14%; `CCc1cc(N(C)Cc2ccno2)n2nc(C)c(C)c2n1`: -2.75%. Next, `CCOCc1cnc2n1CCN(C(=O)c1ccccc1)C2C` (centres undefined): 19.2%; `CSCc1ccc(CNCCCN2CCOCC2)o1`: -12.3%; `Cc1ccc(NC2(C(=O)NCc3c(C)n[nH]c3C)CCCC2)cc1`: -5.51%. On to `CC(C)C(C)(O)CNc1cccc(F)c1C#N` (centres undefined), for which the cytotoxicity at 70.5 h is -7.64%. As for `COc1ccc(CN2C[C@@H]3COC[C@H](N4CCN(C)CC4)[C@@H]3C2)cc1`, the figure is -5.19%; as for `CCOc1cncc(N2CCCC2c2nnc3n2CCCCC3)n1` (centres undefined), -3.47%; as for `CC(NC(=O)CNC(=O)OC(C)(C)C)c1ccc(Cl)s1` (centres undefined), 10.9%. As for `COc1ccc(C(C)NCc2scnc2C)cc1Cn1cccn1` (centres undefined), the figure is 0.409%; as for `CN(C)C(=O)N1CCn2nc(CNC(=O)CCc3ccccn3)cc2C1`, 13.6%.

On to `CCc1ccc(CNC(=O)c2ccc(N3CCOC3=O)cc2)s1`, for which the cytotoxicity at 70.5 h stood at 20.2%. As for `O=C(c1ccc(-c2nc[nH]n2)cc1)N1CCOC(C(F)(F)F)C1` (centres undefined), the figure is 23.3%; as for `COc1cccc2c(=O)n(Cc3nc(C)cc(O)n3)cnc12`, -12.5%.

For `COCCN1CCC(CN(CC2CCCO2)C(=O)COC)CC1` (centres undefined), the cytotoxicity at 70.5 h came out at 13.8%. As for `CC(=O)N1CCN(CCNS(=O)(=O)c2ccc(C)c(F)c2)CC1`, the figure is 28.3%. As for `CC(C)N1CCCC(C(=O)N2CCN(c3nsc4ccccc34)CC2)C1` (centres undefined), the figure is 1.52%; as for `O=C(C1CCCO1)N1CCc2ncnc(NC3CCC3)c2CC1` (centres undefined), -15.3%.

For `COc1cccc(-c2noc3c2CN(c2nc(C)ncc2C)CC3)c1`, the cytotoxicity at 70.5 h is -9.61%. For the compound `CCN(CC)c1ccc(CNC(=O)c2cnccn2)cn1`, the cytotoxicity at 70.5 h worked out at 18%.

On to `CC(=O)N(c1ccc(F)cc1)c1nc(CN2CCCC2C(C)C)cs1` (centres undefined), for which the cytotoxicity at 70.5 h amounted to 24.7%.

Turning to `Cc1ncsc1C(=O)N(Cc1cccs1)C1CC1`, the cytotoxicity at 70.5 h is -16.1%.

On to `Cn1nc(COCC2CC2)c2c1CCN(C(=O)c1ccno1)C2`, for which the cytotoxicity at 70.5 h was -10.9%. Take `Cc1cc(C[C@@H]2COC[C@H]2NCc2ccc(C(C)C)cc2)on1`: the cytotoxicity at 70.5 h was -8.05%. Next, `Cc1ccc(C(=O)N2CCC3(CC2)CC(NC(=O)C(C)C)CO3)cc1` (centres undefined): 5.27%; `Cc1nc[nH]c1-c1c(-c2ccccc2)ncn1C1CCNC1` (centres undefined): -1.75%; `COCCNC(=O)[C@@]12CCO[C@@H]1CCN(Cc1c(C)noc1C)C2`: -5.87%. Regarding `CC(C(=O)NCCN1CCCCC1)n1cncn1` (centres undefined), the cytotoxicity at 70.5 h is -12.5%. As for `Cc1nn(C)cc1CN(C)c1nccc(-c2cn(C)nc2C)n1`, the figure is -0.948%; as for `Cc1[nH]c2c(C)ccc(C)c2c1CC(=O)NCCCNc1cccnc1`, -9.64%; as for `COCc1nc2cc(NCc3cc[nH]n3)ccc2o1`, -2.44%. As for `CC(C)N1CCCC(C(=O)N2CCN(c3cnn(C)c(=O)c3)CC2)C1` (centres undefined), the figure is -7.17%; as for `CCc1ccc(C(=O)O)cc1S(=O)(=O)N(C)c1cccc(C#N)c1`, -6.98%. As for `CC(C)NC(=O)N1CCOC2(CCCNC2)C1` (centres undefined), the figure is 4.28%; as for `Cc1nc(C2CCCN2Cc2cc(Cl)c3c(c2)OCCO3)no1` (centres undefined), 16.9%. On to `Cn1cnc2c1C(COCC1CCOCC1)CN(Cc1ccccn1)C2` (centres undefined), for which the cytotoxicity at 70.5 h is -15.9%.

Regarding `Cc1cc(C2CCCN2Cc2nc(-c3ccco3)no2)on1` (centres undefined), the cytotoxicity at 70.5 h is -0.568%. Consider `COc1cc(Cl)c(C)cc1-n1nnc(C(=O)O)c1C`, for which the cytotoxicity at 70.5 h was -2%. As for `COc1cccc2cc(CNCc3ccnc(N(C)C)c3)oc12`, the figure is 7.6%; as for `CC(C)N1CCC2(CC1)NC(=O)c1cc(Br)ccc1-n1nnnc12`, -4.14%; as for `COC(=O)c1cc(C2CC2)nc2c(Cl)cnn12`, 24.9%.

Regarding `Cc1nc(C)n(CC2CCCN2Cc2nc3ccccc3n2C)n1` (centres undefined), the cytotoxicity at 70.5 h was -7.27%.

With `CN(C)S(=O)(=O)c1ccc(CN2CCC(c3ccccc3)C2)o1` (centres undefined), the cytotoxicity at 70.5 h turned out to be 4.6%.

In the case of `O=C1C[C@H]2[C@@H](CCN2C(=O)Cc2cccs2)N1Cc1ccncc1`, the cytotoxicity at 70.5 h turned out to be 27.8%. On to `COCC(C)N1CCc2onc(-c3ccc(C(F)(F)F)cc3)c2C1` (centres undefined), for which the cytotoxicity at 70.5 h is -7.25%. As for `N#Cc1c(Cl)nsc1NCCCN1C(=O)COc2ccccc21`, the figure is 8.75%; as for `O=C(CCc1c[nH]cn1)N1CC[C@@H](c2ccc3ccccc3c2)[C@H](O)C1`, -8.55%. As for `CCOC(=O)CC1CCCCN1C(=O)c1cc(=O)[nH]c(=O)[nH]1` (centres undefined), the figure is 11.7%. Next, `Cc1cc(C(=O)NCCC(=O)N2CCCc3ccccc32)no1`: -4.18%; `CCN(Cc1nccn1C)C(=O)c1ccc(NCCc2c[nH]cn2)nc1`: 4.71%; `Cc1ccc(C)c(C(=O)Nc2ccc(OC3CCN(C)CC3)cc2)c1`: -6.52%. With `O=c1[nH]nc2nc(N3CCCC3)ccn12`, the cytotoxicity at 70.5 h was 5.61%. Take `CN(Cc1cn2c(n1)CN(C1CCOC1)CC2)Cc1ccco1` (centres undefined): the cytotoxicity at 70.5 h is -8.22%. As for `COCC1CN(C(=O)Nc2cc(Cl)cc(Cl)c2)CCO1` (centres undefined), the figure is -5.22%; as for `Cc1ncsc1C(=O)NCCSCCCO`, 9.95%; as for `O=C(Cc1ccc(F)cc1)NCCNS(=O)(=O)c1ccc(F)c(F)c1`, -1.6%. Regarding `O=C(Cc1cccs1)N1CCC2(CCCN(CC3CCOCC3)C2)C1` (centres undefined), the cytotoxicity at 70.5 h is -6.08%.

Turning to `COc1ccccc1C1Cn2ccnc2CN1Cc1c[nH]nc1C` (centres undefined), the cytotoxicity at 70.5 h is -1.22%. On to `CN(CC1CC1)c1ccc2ccc(C(=O)NCCc3ccccc3)cn12`, for which the cytotoxicity at 70.5 h is -12.6%. Next, `COc1cc(N2CC[C@H]3OCC[C@@]3(COc3nccc(C)n3)C2)ncn1`: -17.3%; `O=C1COc2ccc(C(=O)NS(=O)(=O)c3ccccc3F)cc2N1`: -8.64%. Take `CN(Cc1ccco1)C(=O)c1cccc(N2CCCC2=O)c1`: the cytotoxicity at 70.5 h was -8.03%.

Consider `CC(C)N(C)S(=O)(=O)N1CCCC1C(=O)N1CCSCC1` (centres undefined), for which the cytotoxicity at 70.5 h is -0.523%.

Consider `Cc1cc(=O)n(CC(=O)NC2CCCCC2)c2ccccc12`, for which the cytotoxicity at 70.5 h was -8.81%. As for `CC(C)CN1C[C@H]2C[C@H](C(=O)N3CCCC3)[C@@H](C1)O2`, the figure is -2.66%. As for `Cc1ccc(S(=O)(=O)N2CCC(Oc3ccccn3)CC2)c(C)c1`, the figure is -19.6%; as for `Cc1ncc(CNC(=O)Nc2cc(C(F)(F)F)c[nH]c2=O)s1`, 0.0851%; as for `Cc1nnc2n1CC(CNc1ncnc3ccccc13)CC2` (centres undefined), -11.6%. As for `COCCN1CCC(C(=O)N(C)Cc2cccc(Cl)c2)C1` (centres undefined), the figure is 32%; as for `CC(NC(=O)NCCN1CCCC1)c1nncn1C` (centres undefined), -8.29%; as for `Cn1c(Nc2ccc(F)cc2)c(C#N)c(=O)n(C)c1=O`, -4.76%.

`CCC(C)(NCC(N)=O)c1nccs1` (centres undefined): the cytotoxicity at 70.5 h is -4.9%. As for `CN1CCN(C(=O)[C@@H]2CCO[C@@H]3CCN(c4ncccn4)C[C@@H]32)CC1`, the figure is -3.98%; as for `Cc1ccc(N2CCCC(NCc3cccc4c3OCCO4)C2)nn1` (centres undefined), -4.41%.

On to `CCCNC(=O)C1CCN(Cc2csc(C(C)C)n2)CC1`, for which the cytotoxicity at 70.5 h was 16.4%. As for `CCc1[nH]c2ccc(CNC(=O)c3cnc(N)nc3C)cc2c1C`, the figure is -3.2%; as for `O=S(=O)(c1ccccc1)N1C[C@@H]2CCCCN(Cc3cccs3)[C@@H]2C1`, -17.2%; as for `CCc1nc2n(n1)CC(NCC(=O)Nc1cc(C)nn1C)CC2` (centres undefined), -6.14%. As for `CN(Cc1ccon1)C(=O)CN1C(=O)OC(C)(C)C1=O`, the figure is -11.5%; as for `COCCNC(=O)Nc1cccc(COCCOC(C)C)c1`, -6.5%. Next, `CNC(=O)C1Cn2ccnc2C2(CCN(C(=O)c3ccoc3C)CC2)O1` (centres undefined): -5.12%; `CN1CC[C@H]2CN(C(=O)c3ccc4sc5c(c4c3)CCNC5=O)C[C@H]21`: -1.19%; `Cc1ccc(N2CCC3(CCN(C(=O)c4ccoc4)CC3)CC2)nn1`: -4.56%. With `CCC(CNC(=O)c1c(C)nn(C)c1OC)Oc1ccccc1` (centres undefined), the cytotoxicity at 70.5 h was -7.65%. Next, `COc1ccc2c(c1)CCCN(C(C)C(=O)NC(N)=O)C2` (centres undefined): -8.05%; `CNC(=O)CCc1cc(C)nc(C2CCCN2)n1` (centres undefined): -12.5%.

`Cc1ccc(C(=O)N2CC[C@H]3[C@@H]2CCC(=O)N3c2ccccc2)cn1`: the cytotoxicity at 70.5 h is -12.4%. As for `Cc1cc(C)n2c(CNCc3ccc(OC(F)F)cc3)cnc2n1`, the figure is -9.15%. Next, `O=C(NC1CCCC1)c1ccc(COCC(F)(F)F)o1`: -0.375%; `O=C(c1ccc(-n2ccnc2)nn1)N1CCCCC1Cn1cccn1` (centres undefined): -5.22%; `O=C(CCn1cccn1)N1CCC(c2nnc(-c3ccsc3)o2)CC1`: -8.63%. Next, `CN1CCN(c2cc(CNCc3cccc4c3OCO4)ccn2)CC1`: -8.22%.
